Results: article PMC12519464, “Dual-Site Inhibition of SARS-CoV‑2 RNA-Dependent RNA Polymerase by Small Molecules Able to Block Viral Replication Identified through a Computer-Aided Drug Discovery Approach” (ACS Infectious Diseases, 2025)

target: SARS-CoV-2 nsp12/7/8 (RTC) complex (Severe acute respiratory syndrome coronavirus 2, UniProt P0DTD1); experiment: biochemical; format: biochemical; settings: not given

Molecule	IC50 [µM]
C=C(C)[C@@H]1CC[C@]2(C)CC[C@]3(C)[C@H](CC[C@@H]4[C@@]5(C)CCC(=O)C(C)(C)[C@@H]5CC[C@]43C)[C@@H]12 [Lupenone]	> 100
C[C@@H]1O[C@@H](O[C@H]2CC[C@]3(C=O)[C@H]4CC[C@]5(C)[C@@H](c6ccc(=O)oc6)CC[C@]5(O)[C@@H]4CC[C@]3(O)C2)[C@H](O)[C@H](O)[C@H]1O[C@@H]1O[C@H](CO)[C@@H](O)[C@H](O)[C@H]1O [Hellebrin]	> 100
CCOC(=O)N[C@@H]1CC[C@@H]2[C@@H](C1)C[C@H]1C(=O)O[C@H](C)[C@H]1[C@H]2/C=C/c1ccc(-c2cccc(F)c2)cn1 [Vorapaxar, reference compound]	> 100
C=C(CC[C@@H](C(=O)O)[C@H]1[C@H](O)C[C@@]2(C)C3=C(CC[C@]12C)[C@@]1(C)CC[C@H](OC(C)=O)C(C)(C)[C@@H]1CC3)C(C)C [Pachymic acid]	> 100
C[C@@H]1C(=O)O[C@H](C)[C@H]1C[C@@H](O)[C@](C)(O)[C@H]1CC[C@@]2(O)C3=CC(=O)[C@@H]4C[C@@H](O)[C@@H](O)C[C@]4(C)[C@H]3CC[C@]12C [Cyasterone]	> 100
CC[C@@]1([C@@H]2O[C@@H]([C@H]3O[C@@](O)(CO)[C@H](C)C[C@@H]3C)C[C@@H]2C)CC[C@H]([C@]2(C)CC[C@]3(C[C@H](O)[C@@H](C)[C@@H]([C@@H](C)[C@@H](OC)[C@H](C)C(=O)O)O3)O2)O1 [Monensin]	> 100
C[C@H]1[C@H](C)CC[C@]2(C)CC[C@]3(C)C(=CC[C@@H]4[C@@]5(C)CC[C@@H](O)[C@](C)(C(=O)O)[C@@H]5CC[C@]43C)[C@H]12 [Beta-Boswellic acid]	21.1 ± 4.45
C[C@]12C=CC(=O)N[C@@H]1CC[C@@H]1[C@@H]2CC[C@]2(C)[C@@H](C(=O)Nc3cc(C(F)(F)F)ccc3C(F)(F)F)CC[C@@H]12 [Dutasteride, reference compound]	> 100
C[C@H]1[C@H](C)CC[C@]2(C(=O)O)CC[C@]3(C)C(=CC[C@@H]4[C@@]5(C)C[C@@H](O)[C@H](O)[C@@](C)(CO)[C@@H]5[C@H](O)C[C@]43C)[C@H]12 [Madecassic Acid]	> 100
C[C@H]1CC[C@]2(NC1)O[C@H]1C[C@H]3[C@@H]4CC[C@H]5C[C@@H](O)CC[C@]5(C)[C@H]4CC[C@]3(C)[C@H]1[C@@H]2C [Tomatidine]	51.4 ± 5.58
C[C@]1(O)C[C@@H](c2nc(-c3ccc4ccc(-c5ccccc5)nc4c3)c3c(N)nccn32)C1 [Linsitinib, reference compound]	> 100
O=C(c1cccc(-c2nc3ccccc3[nH]2)n1)N1CCN(C(=O)c2cccc(-c3nc4ccccc4[nH]3)n2)CC1 [Omilancor, reference compound]	> 100

same assay, conditions: primer-extension PAGE assay, 150 nM RTC, 5% DMSO, 30 min preincubation at 37 °C; mean and SD of at least 3 independent experiments

Molecule	IC50 [µM]
CO[C@H]1/C=C/O[C@@]2(C)Oc3c(C)c(O)c4c(O)c(c5c(nc6cc(C)ccn65)c4c3C2=O)NC(=O)/C(C)=C\C=C\[C@H](C)[C@H](O)[C@@H](C)[C@@H](O)[C@@H](C)[C@H](OC(C)=O)[C@@H]1C [Rifaximin, reference compound]	> 100
CC(C)(C)NC(=O)c1ccc(Oc2cc(F)c(CC(=O)O)cc2Cl)c(NS(=O)(=O)c2ccc(C3CC3)cc2Cl)c1 [Vidupiprant, reference compound]	63.5 ± 24.3
Cc1ccc(C(=O)NNC(=O)c2c(C)cccc2Cl)cc1C#Cc1cnc2ccccc2c1 [Vodobatinib, reference compound]	> 100
C[C@@H]1CC[C@]2(C(=O)O)CC[C@]3(C)C(=CC[C@@H]4[C@@]5(C)CC[C@H](O)[C@@](C)(CO)[C@@H]5CC[C@]43C)[C@@H]2[C@]1(C)O [Rotundic acid]	> 100
Cc1cc(Nc2ncnc3ccc(NC4=NC(C)(C)CO4)cc23)ccc1Oc1ccn2ncnc2c1 [Tucatinib, reference compound]	> 100
CS(=O)(=O)c1cccc(C[C@H](NC(=O)c2c(Cl)cc3c(c2Cl)CCN(C(=O)c2ccc4ccoc4c2)C3)C(=O)O)c1 [Lifitegrast, reference compound]	> 100
C[C@@H]1CC[C@@]2(OC1)O[C@H]1C[C@H]3[C@@H]4CC=C5C[C@@H](O[C@@H]6O[C@H](CO)[C@@H](O)[C@H](O)[C@H]6O)CC[C@]5(C)[C@H]4CC[C@]3(C)[C@H]1[C@@H]2C [Disogluside]	> 100
Cc1ccc(C(=O)Nc2ccc(Oc3cc4cnn(C)c4cc3-c3cn[nH]c3)c(F)c2)c(=O)n1-c1ccc(F)cc1 [Merestinib, reference compound]	> 100
O=C(Nc1nc(-c2cc(Cl)cs2)c(N2CCN(C3CCCCC3)CC2)s1)c1cnc(N2CCC(C(=O)O)CC2)c(Cl)c1 [Avatrombopag, reference compound]	27.2 ± 7.35
C[C@H]1CN(C2COC2)CCN1c1ccc(Nc2cc(-c3ccnc(N4CCn5c(cc6c5CC(C)(C)C6)C4=O)c3CO)cn(C)c2=O)nc1 [Fenebrutinib, reference compound]	> 100

same assay, conditions: read-out: IC50: compound concentration required to inhibit by 50% the SARS-CoV-2 RTC enzymatic activity

Molecule	IC50 [µM]
C[C@H]1CC[C@@H]2N(C1)C[C@H]1[C@@H]3C[C@H]4[C@@H](CC(=O)[C@H]5C[C@@H](O[C@@H]6O[C@H](CO)[C@@H](O)[C@H](O)[C@H]6O)CC[C@@]54C)[C@@H]3CC[C@H]1[C@]2(C)O [Imperialine 3-beta-D-glucoside]	> 100
CC(C)(O)[C@H]1CC[C@@](C)([C@H]2CC[C@]3(C)[C@@H]2[C@H](O)C[C@@H]2[C@@]4(C)CC[C@H](O)C(C)(C)[C@@H]4[C@@H](O[C@@H]4O[C@H](CO)[C@@H](O)[C@H](O)[C@H]4O)C[C@]23C)O1 [Pseudoginsenoside Rt5]	> 100
C[C@H]1[C@H](C)CC[C@]2(C(=O)O)CC[C@]3(C)C(=CC[C@@H]4[C@@]5(C)CC[C@H](O)C(C)(C)[C@@H]5CC[C@]43C)[C@H]12 [3-Epiursolic Acid]	11.6 ± 3.97
CC1(C)[C@@H](O)CC[C@]2(C)[C@H]3CC=C4[C@@H]5C[C@@]6(C)C[C@H](OC6=O)[C@]5(C)CC[C@@]4(C)[C@]3(C)CC[C@@H]12 [Wilforlide A]	> 100
COc1ccc2cc(S(=O)(=O)N[C@H](CC(=O)N[C@H](Cc3ccc(CN4[C@H](C)CCC[C@@H]4C)cc3)C(=O)N(C)C(C)C)c3ccc4c(c3)OCO4)ccc2c1 [SSR240612, reference compound]	85.9 ± 4.35
C=C(C)[C@@H]1CC[C@]2(C)CC[C@]3(C)[C@H](CC[C@@H]4[C@@]5(C)CC[C@H](OC(C)=O)C(C)(C)[C@@H]5CC[C@]43C)[C@@H]12 [Lupeol Acetate]	> 100
CC(C)(O)CC[C@H]1OC(C)(C)O[C@]1(C)[C@H]1CC[C@@]2(O)C3=CC(=O)[C@@H]4C[C@@H](O)[C@@H](O)C[C@]4(C)[C@H]3CC[C@]12C [20-Hydroxyecdysone 20,22-acetonide]	> 100
Cc1ccccc1N=Cc1c(O)c(O)c(C(C)C)c2cc(C)c(-c3c(C)cc4c(C(C)C)c(O)c(O)c(C=Nc5ccccc5C)c4c3O)c(O)c12 [3-methyl-8-[(2-methylphenyl)iminomethyl]-5-propan-2-yl-2-[1,6,7-trihydroxy-3-methyl-8-[(2-methylphenyl)iminomethyl]-5-propan-2-ylnaphthalen-2-yl]naphthalene-1,6,7-triol]	28.4 ± 7.42
C[C@@H]1CC[C@@]2(OC1)O[C@H]1C[C@H]3[C@@H]4CC[C@@H]5C[C@@H](O)CC[C@]5(C)[C@H]4CC[C@]3(C)[C@H]1[C@@H]2C [Smilagenin, reference compound]	> 100
C=CCOc1cccc(C(=O)[C@@H]2[C@@H]3CCCN3[C@]3(C(=O)Nc4c(C)cc(C)cc43)[C@@]23C(=O)Nc2ccccc23)c1 [(1'S,3R,3'S,7a'S)-5'',7''-dimethyl-1'-{[3-(prop-2-en-1-yloxy)phenyl]carbonyl}-5',6',7',7a'-tetrahydro-1'H-dispiro[indole-3,2'-pyrrolizine-3',3''-indole]-2,2''(1H,1''H)-dione]	> 100
COc1ccc2cc(-c3cc(-c4cc(Cl)cc(Cl)c4)nn3[C@@H](C)c3ccc(C(=O)NCCC(=O)O)cc3)ccc2c1 [3-[[4-[(1S)-1-[3-(3,5-dichlorophenyl)-5-(6-methoxynaphthalen-2-yl)pyrazol-1-yl]ethyl]benzoyl]amino]propanoic acid, reference compound]	11.8 ± 6.43
C/C(Nc1ccc(Oc2ccc(N/C(C)=C3\C(=O)C[C@@H]4[C@H]3C4(C)C)cc2)cc1)=C1/C(=O)C[C@@H]2[C@H]1C2(C)C [(1S,2Z,5R)-2-[1-[4-[4-[[(1Z)-1-[(1S,5R)-6,6-dimethyl-3-oxo-2-bicyclo[3.1.0]hexanylidene]ethyl]amino]phenoxy]anilino]ethylidene]-6,6-dimethylbicyclo[3.1.0]hexan-3-one]	> 100
CC(C)C1=C2[C@H]3CC[C@@H]4[C@@]5(C)CC[C@H](OC(=O)CC(C)(C)C(=O)O)C(C)(C)[C@@H]5CC[C@@]4(C)[C@]3(C)CC[C@@]2([C@@H](O)CN(CCN(C)C)Cc2ccc(Cl)cc2)CC1=O [Gsk-2838232, reference compound]	> 100
Cc1ccc(NC(=O)[C@H]2CCCN(C(=O)c3c(C)cccc3F)[C@H]2c2ccc(NC3CCCC3)cc2)cc1C(F)(F)F [Avacopan, reference compound]	> 100
CC(C)(O)CC[C@H]1OC(C)(C)O[C@]1(C)[C@H]1CC[C@@]2(O)C3=CC(=O)[C@@H]4C[C@H]5OC(C)(C)O[C@H]5C[C@]4(C)[C@H]3CC[C@]12C [Ecdysterone 2,3:20,22-diacetonide]	> 100
Dryocrassin ABBA	14.5 ± 5.46
Cc1cc2c(C(C)C)c(O)c(O)c(C=NCc3ccncc3)c2c(O)c1-c1c(C)cc2c(C(C)C)c(O)c(O)c(C=NCc3ccncc3)c2c1O [3-methyl-5-propan-2-yl-8-(pyridin-4-ylmethyliminomethyl)-2-[1,6,7-trihydroxy-3-methyl-5-propan-2-yl-8-(pyridin-4-ylmethyliminomethyl)naphthalen-2-yl]naphthalene-1,6,7-triol]	16.1 ± 0.32
